Measurements taken from ChEMBL document CHEMBL1155619, “Kurstakins: a new class of lipopeptides isolated from Bacillus thuringiensis” (2000).
Active and inactive are the calls of the source. No cut-off for these calls is given here. Starred links: 1 amine or outer side, 2 acyl side, 3 side chain; linkers in the order of their positions; H or OH if unused. Positions of bridges follow the written chain, without caps; N, C: chain ends. Non-standard residues stand in square brackets, D forms with d. Residues, ends and D or L forms follow the SMILES beside them. X1 = CC(C)CCCCCCCCC[C@H](CC(=O)[*:1])O[*:2]

System: Stachybotrys chartarum
Assay: Antifungal activity against Stachybotrys charatum assessed as zone of inhibition at 80 ug after 24 hrs
Assay type: functional

## CC(C)CCCCCCCCC[C@@H]1CC(=O)N[C@@H](CCC(=O)O)C(=O)N[C@@H](CC(C)C)C(=O)N[C@H](CC(C)C)C(=O)N[C@@H](C(C)C)C(=O)N[C@@H](CC(=O)O)C(=O)N[C@H](CC(C)C)C(=O)N[C@@H](CC(C)C)C(=O)O1 (EL[dL]VD[dL]L; linker N-C via X1)
  Activity: inactive
